Experimental data published in ChEMBL document CHEMBL5247626, “In vitro and in vivo biological evaluation of newly synthesized multi-target 20(R)-panaxadiol derivatives for treating Alzheimer's disease” (Eur J Med Chem, 2022).
Calls of active or inactive are those of the source. The calls are words filed in the database; no cut-off is given here.

What was measured:
[1] = Permeability of the compound incubated for 4 hrs by PAMPA-BBB assay based HPLC analysis
[2] = C0 in Sprague-Dawley rat at 10 mg/kg,iv measured at 0.083 to 24 hrs post administration by LC-MS/MS analysis; type: ADME, organism-based; conditions: in vivo, time 0.083-24 hrs
[3] = Half life in Sprague-Dawley rat at 60 mg/kg,po measured at 0.25 to 24 hrs post administration by LC-MS/MS analysis; type: ADME, organism-based; conditions: in vivo, time 0.25-24 hrs
[4] = Tmax in Sprague-Dawley rat at 60 mg/kg,po measured at 0.25 to 24 hrs post administration by LC-MS/MS analysis; type: ADME, organism-based; conditions: in vivo, time 0.25-24 hrs
[5] = MRT (0 to t) in Sprague-Dawley rat at 60 mg/kg,po measured at 0.25 to 24 hrs post administration by LC-MS/MS analysis; type: ADME, organism-based; conditions: in vivo, time 0.25-24 hrs
[6] = Oral bioavailability in Sprague-Dawley rat at 60 mg/kg measured after 0.25 to 24 hrs post administration by LC-MS/MS analysis; type: ADME, organism-based; conditions: in vivo, time 0.25-24 hrs
[7] = test system: N2a; assay: Cytotoxicity against mouse Neuro2a cells assessed as effect on survival at < 60 uM incubated for 24 hrs by MTT assay; type: toxicity, cell-based
[8] = test system: N2a; assay: Cytotoxicity against mouse Neuro2a cells assessed as decrease in cell viability at 120 uM incubated for 24 hrs by MTT assay; type: toxicity, cell-based
[9] = Cytotoxicity against mouse Neuro2a cells assessed as cell viability at 120 uM incubated for 24 hrs by MTT assay; type: toxicity, cell-based; conditions: Neuro2a (N2a) cells, read-out: Activity
[10] = test system: PC-12; assay: Neuroprotective activity against rat PC12 cells assessed as reduction in amyloid beta (25 to 35)-induced cytotoxicity at 2.67 to 91.27 uM incubated for 4 hrs followed by amyloid beta (25 to 35) treatment for 24 hrs by MTT assay relative to control; type: functional; parameters: scale not given: the % may be the effect or the level left; conditions: dose 2.67-91.27 µM, time 28 hrs
[11] = test system: PC-12; assay: Neuroprotective activity against amyloid beta (25 to 35)-induced rat PC12 cells assessed as reduction in amyloid beta (25 to 35)-induced apoptosis rate at 7.5 uM incubated for 15 mins by Annexin V-FITC/PI staining based flow cytometric analysis (reference value: 2.9%); type: functional; parameters: scale not given: the % may be the effect or the level left; conditions: 0.25 h
[12] = test system: PC-12; assay: Neuroprotective activity against amyloid beta (25 to 35)-induced rat PC12 cells assessed as decrease in amyloid beta level at 3.75 to 30 uM incubated for 30 mins followed by amyloid beta (25 to 35) addition and measured after 24 hrs by ELISA; type: functional, cell-based; conditions: dose 3.75-30 µM, time 24.5 hrs
[13] = test system: PC-12; assay: Neuroprotective activity against amyloid beta (25 to 35)-induced rat PC12 cells assessed as decrease in beta-secretase protein expression level at 3.75 to 30 uM incubated for 30 mins followed by amyloid beta (25 to 35) addition and measured after 24 hrs by ELISA; type: functional, cell-based; conditions: dose 3.75-30 µM, time 24.5 hrs
[14] = test system: PC-12; assay: Neuroprotective activity against amyloid beta (25 to 35)-induced rat PC12 cells assessed as decrease in total tau protein expression level at 7.5 to 30 uM preincubated for 30 mins followed by amyloid beta (25 to 35) addition and measured after 24 hrs by western blot assay; type: functional, cell-based; conditions: dose 7.5-30 µM, time 24.5 hrs
[15] = test system: PC-12; assay: Neuroprotective activity against amyloid beta (25 to 35)-induced rat PC12 cells assessed as decrease in TNF-alpha expression level at 7.5 to 30 uM preincubated for 30 mins followed by amyloid beta (25 to 35) addition and measured after 24 hrs by western blot assay; type: functional, cell-based; conditions: dose 7.5-30 µM, time 24.5 hrs
[16] = test system: PC-12; assay: Neuroprotective activity against amyloid beta (25 to 35)-induced rat PC12 cells assessed as decrease in COX-2 expression level at 7.5 to 30 uM preincubated for 30 mins followed by amyloid beta (25 to 35) addition and measured after 24 hrs by western blot assay; type: functional, cell-based; conditions: dose 7.5-30 µM, time 24.5 hrs
[17] = test system: PC-12; assay: Neuroprotective activity against amyloid beta (25 to 35)-induced rat PC12 cells assessed as decrease in p38 phosphorylation level at 7.5 to 30 uM preincubated for 30 mins followed by amyloid beta (25 to 35) addition and measured after 24 hrs by western blot assay; type: functional, cell-based; conditions: dose 7.5-30 µM, time 24.5 hrs
[18] = test system: PC-12; assay: Neuroprotective activity against amyloid beta (25 to 35)-induced rat PC12 cells assessed as decrease in JNK phosphorylation level at 7.5 to 30 uM preincubated for 30 mins followed by amyloid beta (25 to 35) addition and measured after 24 hrs by western blot assay; type: functional, cell-based; conditions: dose 7.5-30 µM, time 24.5 hrs
[19] = test system: PC-12; assay: Neuroprotective activity against amyloid beta (25 to 35)-induced rat PC12 cells assessed as decrease in NF-kappaB expression level at 7.5 to 30 uM preincubated for 30 mins followed by amyloid beta (25 to 35) addition and measured after 24 hrs by western blot assay; type: functional, cell-based; conditions: dose 7.5-30 µM, time 24.5 hrs
[20] = test system: Mus musculus; assay: Antialzheimer activity against amyloid beta (25 to 35)-induced cognitive deficit ICR mouse model assessed as attenuation of behavioral deficit at 50 mg/kg,po observed after 12 to 15 days of administration by Y maze test; type: functional, organism-based; conditions: time 12-15 day
[21] = test system: Mus musculus; assay: Antialzheimer activity against amyloid beta (25 to 35)-induced cognitive deficit ICR mouse model assessed as increase in discrimination index at 50 mg/kg,po observed after 1 hr of administration by novel object recognition test; type: functional, organism-based
[22] = test system: Mus musculus; assay: Antialzheimer activity against amyloid beta (25 to 35)-induced cognitive deficit ICR mouse model assessed as increase in preferential index at 25 mg/kg,po observed after 1 hr of administration by novel object recognition test; type: functional, organism-based
[23] = test system: Mus musculus; assay: Antialzheimer activity against amyloid beta (25 to 35)-induced cognitive deficit ICR mouse model assessed as increase in preferential index at 50 mg/kg,po observed after 1 hr of administration by novel object recognition test; type: functional, organism-based
[24] = test system: Mus musculus; assay: Antialzheimer activity against amyloid beta (25 to 35)-induced cognitive deficit ICR mouse model assessed as increase in discrimination index at 25 mg/kg,po observed after 24 hrs of administration by novel object recognition test; type: functional, organism-based
[25] = test system: Mus musculus; assay: Antialzheimer activity against amyloid beta (25 to 35)-induced spatial memory deficit ICR mouse model assessed as increase in distance travelled in target quadrant at 50 mg/kg,po observed at 16 to 20 days of administration by morris water maze test; type: functional, organism-based; conditions: time 16-20 day
[26] = test system: Mus musculus; assay: Antialzheimer activity against amyloid beta (25 to 35)-induced brain injury ICR mouse model assessed as attenuation of pathological change in hippocampal CAl region at 12.5 to 50 mg/kg,po administrated for 21 days by hematoxylin and eosin staining based microscopic analysis; type: functional, organism-based; conditions: dose 12.5-50 mg/kg, time 21.0 day
[27] = test system: Mus musculus; assay: Antialzheimer activity against amyloid beta (25 to 35)-induced brain injury ICR mouse model assessed as attenuation of pathological change in cerebral cortex at 12.5 to 50 mg/kg,po administrated for 21 days by hematoxylin and eosin staining based microscopic analysis; type: functional, organism-based; conditions: dose 12.5-50 mg/kg, time 21.0 day
[28] = Toxicity in ICR mouse assessed as pathological changes in heart at 12.5 to 50 mg/kg,po administrated for 20 days by hematoxylin and eosin staining based microscopic analysis; type: organism-based; conditions: in vivo, 480 h, dose 12.5-50 mg/kg, time 20 day
[29] = Toxicity in ICR mouse assessed as pathological changes in spleen at 12.5 to 50 mg/kg,po administrated for 20 days by hematoxylin and eosin staining based microscopic analysis; type: organism-based; conditions: in vivo, 480 h, dose 12.5-50 mg/kg, time 20 day
[30] = Toxicity in ICR mouse assessed as pathological changes in kidney at 12.5 to 50 mg/kg,po administrated for 20 days by hematoxylin and eosin staining based microscopic analysis; type: organism-based; conditions: in vivo, 480 h, dose 12.5-50 mg/kg, time 20 day

SMILES: CC1(C)CCC[C@](C)([C@H]2CC[C@]3(C)[C@@H]2[C@H](O)C[C@@H]2[C@@]4(C)CC[C@H](OC(=O)NCc5ccccc5)C(C)(C)[C@@H]4CC[C@]23C)O1
- Papp at 4 h [1]: 26.1 ×10⁻⁶ cm/s
- C0 [2]: 237 µg/mL
- half-life [3]: 49 min
- Tmax [4]: 1.33 h
- MRT last [5]: 2.24 h
- bioavailability [6]: 0.2%
- Activity [7]: Non-Toxic
- Activity [8]: Toxic
- viability at 24 h, 120 µM [9]: > 50%
- Activity [10]: 14.89%
- Activity [11]: 14.1%
- Activity [12]: Active
- Activity [13]: Active
- Activity [14]: Active
- Activity [15]: Active
- Activity [16]: Active
- Activity [17]: Active
- Activity [18]: Active
- Activity [19]: Active
- Activity [20]: Active
- Activity [21]: inactive
- Activity [22]: inactive
- Activity [23]: inactive
- Activity [24]: Active
- Activity [25]: Active
- Activity [26]: Active
- Activity [27]: Active
- Activity [28]: Non-Toxic
- Activity [29]: Non-Toxic
- Activity [30]: Non-Toxic
